This note sets out measurements from patent US9422240B2, “Partially saturated nitrogen-containing heterocyclic compound” (TAISHO PHARMACEUTICAL CO., LTD, priority 2012, dated 2016).

Assay [1] has as its target T1, human PHD2 (Homo sapiens (Human), UniProt Q9GZT9). The experiment in a line: Test 1: human PHD2 inhibitory activity, [14C]-2-oxoglutarate to [14C]-succinic acid radiometric assay with HIF-1α peptide. Type of assay: biochemical. The following applies: test compound's concentration 1 μM; Test 1, [14C]-2-oxoglutarate radiometric assay; read-out: Percent inhibition (% at 1 μM). In short, it runs like this: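 Lysate from HighFive insect cells expressing human PHD2 (4 μg/well) was incubated for 15 min at 37° C with a 19-residue HIF-1α peptide and [14C]-2-oxoglutarate. Unreacted 2-oxoglutarate was precipitated with DNPH and filtered off, and [14C]-succinic acid was counted. Inhibition was calculated relative to substrate-free and compound-free controls.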

In assay [2] the target is T1, human PHD2. As to the kind of experiment: Test 2: human PHD2 inhibitory activity, fluorescence polarization assay of HIF-1α peptide proline hydroxylation. In kind it is biochemical. The following applies: test compound's concentration 1 μM; Test 2, fluorescence polarization assay; read-out: Percent inhibition (% at 1 μM). In short, it runs like this:
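Enzyme from lysate of cells expressing human PHD2 (NM_022051), 40 ng/well, added to compound and 19-residue HIF-1α peptide substrate; 20 min at 30° C., EDTA quench. Prolyl hydroxylation detected by HIF-OH antibody binding via fluorescence polarization; inhibition relative to compound-free wells.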
On the technique in general: Polarisation of emitted light reports the rotation of a fluorescent probe.

T1 sequence (Q9GZT9 whole entry): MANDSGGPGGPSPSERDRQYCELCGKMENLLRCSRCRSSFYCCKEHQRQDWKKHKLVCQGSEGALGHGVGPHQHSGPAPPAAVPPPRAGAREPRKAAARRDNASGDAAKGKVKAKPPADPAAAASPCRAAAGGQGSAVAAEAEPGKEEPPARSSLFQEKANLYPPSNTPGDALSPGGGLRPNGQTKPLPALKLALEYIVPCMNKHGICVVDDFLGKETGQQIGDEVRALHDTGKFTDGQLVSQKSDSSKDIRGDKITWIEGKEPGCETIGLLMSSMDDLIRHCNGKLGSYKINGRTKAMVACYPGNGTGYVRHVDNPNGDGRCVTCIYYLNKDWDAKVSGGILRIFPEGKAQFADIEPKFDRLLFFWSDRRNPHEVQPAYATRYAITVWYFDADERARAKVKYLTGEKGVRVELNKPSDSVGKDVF

Regarding `O=C(O)CNC(=O)C1=C(O)CCN(CCc2cccc(C(F)(F)F)c2)C1=O` [Ex. 1-173], the inhibition at 1 µM turned out to be 64% at human PHD2 [1] and 78% on human PHD2 [2].
Turning to `CC1(C)CN(Cc2ccc(C(F)(F)F)cc2)C(=O)C(C(=O)NCC(=O)O)=C1O` [Ex. 1-174], the inhibition at 1 µM at human PHD2 [1] stood at 59%; on human PHD2 [2] it was 74%.
On to `CC1(C)C(O)=C(C(=O)NCC(=O)O)C(=O)N(Cc2ccc(C(F)(F)F)cc2)C1(C)C` [Ex. 1-175], for which the inhibition at 1 µM was found to be 32% at human PHD2 [1] and 56% at human PHD2 [2].
With `O=C(O)CNC(=O)C1=C(O)CCN(CCc2ccc(C(F)(F)F)cc2)C1=O` [Ex. 1-176], the values for the inhibition at 1 µM at human PHD2 [1] and on human PHD2 [2] were 74% and 80%, respectively.
In the case of `CC1CC(O)=C(C(=O)NCC(=O)O)C(=O)N1Cc1ccc(-c2ccc(F)cc2)cc1` (stereo not drawn) [Ex. 1-177], the inhibition at 1 µM worked out at 93% at human PHD2 [1] and 92% at human PHD2 [2].
The corresponding values for `O=C(O)CNC(=O)C1=C(O)CC2(CCC2)N(Cc2ccc(-c3ccc(F)cc3)cc2)C1=O` [Ex. 1-178] are 81% and 92%.
Take `Cc1cc(CN2C(=O)C(C(=O)NCC(=O)O)=C(O)CC2(C)C)ccc1F` [Ex. 1-179]: the inhibition at 1 µM at human PHD2 [1] stood at 44%; at human PHD2 [2], 49%.
With `Cc1cc(CN2C(=O)C(C(=O)NCC(=O)O)=C(O)CC2(C)C)ccc1Cl` [Ex. 1-180], the inhibition at 1 µM on human PHD2 [1] stood at 54%; on human PHD2 [2], 65%.
Consider `O=C(O)CNC(=O)C1=C(O)CC(Cc2ccccc2)N(Cc2ccc(C(F)(F)F)cc2)C1=O` (stereo not drawn) [Ex. 1-181], for which the values for the inhibition at 1 µM at human PHD2 [1] and on human PHD2 [2] were 73% and 83%, respectively.
On to `CCC1CC(O)=C(C(=O)NCC(=O)O)C(=O)N1Cc1ccc(C(F)(F)F)cc1` (stereo not drawn) [Ex. 1-182], for which the inhibition at 1 µM stood at 77% on human PHD2 [1] and 71% on human PHD2 [2].
Take `CCC1(CC)CC(O)=C(C(=O)NCC(=O)O)C(=O)N1Cc1ccc(C(F)(F)F)cc1` [Ex. 1-183]: the inhibition at 1 µM on human PHD2 [1] was found to be 39%; at human PHD2 [2], 50%.
The corresponding values for `Cc1ccc(CN2C(=O)C(C(=O)NCC(=O)O)=C(O)CC2(C)C)cc1F` [Ex. 1-184] are 59% and 60%.
For the compound `O=C(O)CNC(=O)C1=C(O)CC(CCc2ccccc2)N(Cc2ccc(C(F)(F)F)cc2)C1=O` (stereo not drawn) [Ex. 1-185], the figures for the inhibition at 1 µM on human PHD2 [1] and on human PHD2 [2] were 69% and 81%, respectively.
Consider `CC1(C)CC(O)=C(C(=O)NCC(=O)O)C(=O)N1Cc1ccc(OCCCC(F)(F)F)cc1` [Ex. 1-186], for which the inhibition at 1 µM at human PHD2 [1] was 64%; on human PHD2 [2], 77%.
As for `Cc1cc(CN2C(=O)C(C(=O)NCC(=O)O)=C(O)CC2(C)C)ccc1OCCCC(F)(F)F` [Ex. 1-187], the inhibition at 1 µM at human PHD2 [1] is 47%; on human PHD2 [2], 74%.
Regarding `CC1(C)CC(O)=C(C(=O)NCC(=O)O)C(=O)N1Cc1ccc(OC(CF)CF)c(Cl)c1` [Ex. 1-188], the inhibition at 1 µM on human PHD2 [1] came to 44%; at human PHD2 [2], 63%.
As to `Cc1cc(CN2C(=O)C(C(=O)NCC(=O)O)=C(O)CC2(C)C)ccc1OC(CF)CF` [Ex. 1-189], the inhibition at 1 µM on human PHD2 [1] came to 53%; at human PHD2 [2], 60%.
For `O=C(O)CNC(=O)C1=C(O)CCN(Cc2ccc(C(F)(F)F)c(C3CC3)c2)C1=O` [Ex. 1-190], the inhibition at 1 µM at human PHD2 [1] was 84%; on human PHD2 [2], 85%.
As for `COc1cc(CN2C(=O)C(C(=O)NCC(=O)O)=C(O)CC2(C)C)ccc1C(F)(F)F` [Ex. 1-191], the inhibition at 1 µM on human PHD2 [1] was 38%; on human PHD2 [2] it was 45%.
As to `CC1(C)CC(O)=C(C(=O)NCC(=O)O)C(=O)N1Cc1ccc(C(F)(F)F)c(OC(F)F)c1` [Ex. 1-192], the inhibition at 1 µM came out at 48% on human PHD2 [1] and 49% on human PHD2 [2].
With `COc1ccc(CN2C(=O)C(C(=O)NCC(=O)O)=C(O)CC2(C)C)c(F)c1` [Ex. 1-193], the results for the inhibition at 1 µM at human PHD2 [1] and at human PHD2 [2] were 67% and 57%, respectively.
As for `COc1ccc(CN2C(=O)C(C(=O)NCC(=O)O)=C(O)CC2(C)C)cc1F` [Ex. 1-194], the results for the inhibition at 1 µM at human PHD2 [1] and at human PHD2 [2] were 54% and 57%, respectively.
As for `COc1ccc(CN2C(=O)C(C(=O)NCC(=O)O)=C(O)CC2(C)C)cc1Cl` [Ex. 1-195], the inhibition at 1 µM is 52% on human PHD2 [1] and 57% on human PHD2 [2].
The corresponding values for `COc1ccc(CN2C(=O)C(C(=O)NCC(=O)O)=C(O)CC2(C)C)cc1C` [Ex. 1-196] are 41% and 48%.
With `CC(C)C1CN(Cc2ccc(C(F)(F)F)cc2)C(=O)C(C(=O)NCC(=O)O)=C1O` (stereo not drawn) [Ex. 1-197], the inhibition at 1 µM at human PHD2 [1] stood at 66%; on human PHD2 [2] it was 78%.
The corresponding values for `CC1(C)CC(O)=C(C(=O)NCC(=O)O)C(=O)N1Cc1ccc(OCC2CC2)cc1` [Ex. 1-198] are 70% and 79%.
Take `Cc1cc(CN2C(=O)C(C(=O)NCC(=O)O)=C(O)CC2(C)C)ccc1OCC1CC1` [Ex. 1-199]: the inhibition at 1 µM at human PHD2 [1] turned out to be 65%; on human PHD2 [2], 75%.
In the case of `O=C(O)CNC(=O)C1=C(O)C2(CC2)CN(Cc2ccc(-c3ccccc3)cc2)C1=O` [Ex. 1-200], the inhibition at 1 µM came out at 98% at human PHD2 [1] and 99% on human PHD2 [2].
Regarding `CC1(C)CC(O)=C(C(=O)NCC(=O)O)C(=O)N1Cc1ccc(OCCCC(F)(F)F)c(F)c1` [Ex. 1-201], the figures for the inhibition at 1 µM at human PHD2 [1] and on human PHD2 [2] were 67% and 73%, respectively.
As to `Cc1ccc(CN2C(=O)C(C(=O)NCC(=O)O)=C(O)CC2(C)C)cc1Cl` [Ex. 1-202], the inhibition at 1 µM on human PHD2 [1] stood at 58%; on human PHD2 [2], 69%.
Turning to `CC1(C)CC(O)=C(C(=O)NCC(=O)O)C(=O)N1Cc1ccc(C2CC2)cc1` [Ex. 1-203], the inhibition at 1 µM at human PHD2 [1] worked out at 61%; at human PHD2 [2], 69%.
As to `CC1(C)CC(O)=C(C(=O)NCC(=O)O)C(=O)N1Cc1ccc(OCC2CC2)c(F)c1` [Ex. 1-204], the figures for the inhibition at 1 µM at human PHD2 [1] and on human PHD2 [2] were 69% and 79%, respectively.
In the same order, the values of `Cc1ccc(Oc2ccc(CN3C(=O)C(C(=O)NCC(=O)O)=C(O)CC3(C)C)cn2)cc1` [Ex. 1-206] are 95% and 93%.
On to `O=C(O)CNC(=O)C1=C(O)C2(CC2)CN(Cc2ccc(Br)cc2)C1=O` [Ex. 1-207], for which the inhibition at 1 µM on human PHD2 [1] came to 92%; at human PHD2 [2], 93%.
Take `O=C(O)CNC(=O)C1=C(O)C2(CC2)CN(Cc2ccc(OC(F)(F)F)cc2)C1=O` [Ex. 1-208]: the inhibition at 1 µM at human PHD2 [1] turned out to be 90%; at human PHD2 [2], 85%.
As to `CC1CC(O)=C(C(=O)NCC(=O)O)C(=O)N1C1(c2ccc(C(F)(F)F)cc2)CC1` (stereo not drawn) [Ex. 1-210], the inhibition at 1 µM at human PHD2 [1] worked out at 59%; at human PHD2 [2], 42%.
Consider `CC1(C)CC(O)=C(C(=O)NCC(=O)O)C(=O)N1Cc1ccc(C2CCC2)cc1` [Ex. 1-211], for which the inhibition at 1 µM at human PHD2 [1] stood at 76%; at human PHD2 [2] it was 79%.
With `O=C(O)CNC(=O)C1=C(O)CCN(Cc2ccc(C3CC3)c(C(F)(F)F)c2)C1=O` [Ex. 1-212], the figures for the inhibition at 1 µM at human PHD2 [1] and at human PHD2 [2] were 82% and 85%, respectively.
On to `CC1(C)CC(O)=C(C(=O)NCC(=O)O)C(=O)N1Cc1cc(-c2ccc(Cl)cc2)no1` [Ex. 1-213], for which the inhibition at 1 µM at human PHD2 [1] and at human PHD2 [2] was 88% throughout.

A word on the inhibition: it is the change of the read-out against control, counted positive when it falls.
